In ChEMBL document CHEMBL5376003, “Structure-Activity Relationship of FL118 Platform Position 7 Versus Position 9-Derived Compounds and Their Mechanism of Action and Antitumor Activity” (J Med Chem, 2023):

Legend:
Format in all cases: functional, cell-based
[1] = system: HCT-116; assay: Growth inhibition of human HCT-116 cells incubated for 48 hrs by MTT reagent based ELISA reader analysis; conditions: HCT-116, 48 h
[2] = system: HepG2; assay: Growth inhibition of human HepG2 cells incubated for 48 hrs by MTT reagent based ELISA reader analysis; conditions: HepG2, 48 h
[3] = system: HeLa; assay: Growth inhibition of human HeLa cells incubated for 48 hrs by MTT reagent based ELISA reader analysis
[4] = system: MCF7; assay: Growth inhibition of human MCF7 cells incubated for 48 hrs by MTT reagent based ELISA reader analysis; conditions: MCF7, 48 h
[5] = system: A549; assay: Growth inhibition of human A549 cells incubated for 48 hrs by MTT reagent based ELISA reader analysis; conditions: A549, 48 h
[6] = system: HCT-116; assay: Induction of apoptosis in human HCT-116 cells assessed as increase in intracellular ROS level incubated for 48 hrs by DCFH-DA staining based fluorescence microscopy

| Compound | IC50 [1] [nM] | IC50 [2] [nM] | IC50 [3] [nM] | IC50 [4] [nM] | IC50 [5] [nM] | Activity [6] |
| --- | --- | --- | --- | --- | --- | --- |
| CC[C@@]1(O)C(=O)OCc2c1cc1n(c2=O)Cc2c-1nc1cc3c(cc1c2-c1cc(OC)c(OC)c(OC)c1)OCO3 | 39.6 | 738 | 200 | 101 | 140 | – |
| CC[C@@]1(O)C(=O)OCc2c1cc1n(c2=O)Cc2c-1nc1cc3c(cc1c2-c1cc(C)cc(C)c1)OCO3 | 64 | 45.4 | 33.6 | 86.8 | 36 | – |
| CCOc1ccc(-c2c3c(cc4nc5c(cc24)Cn2c-5cc4c(c2=O)COC(=O)[C@]4(O)CC)OCO3)cc1 | 176 | > 1000 | > 1000 | > 1000 | 296 | – |
| CCSc1ccc(-c2c3c(nc4cc5c(cc24)OCO5)-c2cc4c(c(=O)n2C3)COC(=O)[C@]4(O)CC)cc1 | 91.3 | 300 | 95.8 | 72.5 | 29.1 | – |
| CCCc1ccc(-c2c3c(cc4nc5c(cc24)Cn2c-5cc4c(c2=O)COC(=O)[C@]4(O)CC)OCO3)cc1 | 951 | > 1000 | > 1000 | > 1000 | 423 | – |
| CC[C@@]1(O)C(=O)OCc2c1cc1n(c2=O)Cc2cc3c(-c4cc(C)cc(C)c4)c4c(cc3nc2-1)OCO4 | 709 | 292 | 115 | 160 | 107 | – |
| CC[C@@]1(O)C(=O)OCc2c1cc1n(c2=O)Cc2c-1nc1cc3c(cc1c2-c1cccc(C)c1)OCO3 | 21.8 | 134 | 144 | 38.6 | 115 | – |
| CCOc1ccc(-c2c3c(nc4cc5c(cc24)OCO5)-c2cc4c(c(=O)n2C3)COC(=O)[C@]4(O)CC)cc1 | 226 | > 1000 | 63.2 | 64 | 61.2 | – |
| CC[C@@]1(O)C(=O)OCc2c1cc1n(c2=O)Cc2cc3c(-c4ccc(SC)cc4)c4c(cc3nc2-1)OCO4 | 582 | 303 | 161 | 158 | 220 | – |
| CC[C@@]1(O)C(=O)OCc2c1cc1n(c2=O)Cc2c-1nc1cc3c(cc1c2-c1cccc(SC)c1)OCO3 | 46.1 | 78.6 | 125 | 34.6 | 132 | – |
| CCc1ccc(-c2c3c(cc4nc5c(cc24)Cn2c-5cc4c(c2=O)COC(=O)[C@]4(O)CC)OCO3)cc1 | 697 | > 1000 | > 1000 | > 1000 | 265 | – |
| CCCc1ccc(-c2c3c(nc4cc5c(cc24)OCO5)-c2cc4c(c(=O)n2C3)COC(=O)[C@]4(O)CC)cc1 | 118 | 827 | 59.4 | 64 | 51 | – |
| CC[C@@]1(O)C(=O)OCc2c1cc1n(c2=O)Cc2cc3c(-c4ccc(OC)cc4)c4c(cc3nc2-1)OCO4 | 162 | 527 | > 1000 | 161 | 163 | – |
| CC[C@@]1(O)C(=O)OCc2c1cc1n(c2=O)Cc2cc3c(-c4ccc(C(C)(C)C)cc4)c4c(cc3nc2-1)OCO4 | > 1000 | > 1000 | 674 | > 1000 | 910 | – |
| CCOc1cccc(-c2c3c(nc4cc5c(cc24)OCO5)-c2cc4c(c(=O)n2C3)COC(=O)[C@]4(O)CC)c1 | 55.9 | 280 | 52.2 | 47.8 | 29.4 | – |
| CC[C@@]1(O)C(=O)OCc2c1cc1n(c2=O)Cc2cc3c(-c4cccc(SC)c4)c4c(cc3nc2-1)OCO4 | 134 | 190 | 32.3 | 98.5 | 133 | – |
| CCCCc1ccc(-c2c3c(nc4cc5c(cc24)OCO5)-c2cc4c(c(=O)n2C3)COC(=O)[C@]4(O)CC)cc1 | 513 | > 1000 | 115 | 60.5 | 54.9 | – |
| CC[C@@]1(O)C(=O)OCc2c1cc1n(c2=O)Cc2cc3c(-c4cc(OC)cc(OC)c4)c4c(cc3nc2-1)OCO4 | 22.3 | 28.1 | 32.8 | 29.7 | 434 | – |
| CC[C@@]1(O)C(=O)OCc2c1cc1n(c2=O)Cc2cc3c(-c4ccc(C(C)C)cc4)c4c(cc3nc2-1)OCO4 | > 1000 | > 1000 | > 1000 | 800 | 765 | – |
| CC[C@@]1(O)C(=O)OCc2c1cc1n(c2=O)Cc2c-1nc1cc3c(cc1c2-c1cccc(OC)c1)OCO3 | 48.5 | 14.8 | 88.3 | 95.8 | 21.4 | – |
| CC[C@@]1(O)C(=O)OCc2c1cc1n(c2=O)Cc2cc3c(-c4ccc5c(c4)OCO5)c4c(cc3nc2-1)OCO4 | 59.2 | 350 | 32.5 | 32.6 | 111 | – |

| Compound | IC50 [1] [nM] | IC50 [2] [nM] | IC50 [3] [nM] | IC50 [4] [nM] | IC50 [5] [nM] | Activity [6] |
| --- | --- | --- | --- | --- | --- | --- |
| CC[C@@]1(O)C(=O)OCc2c1cc1n(c2=O)Cc2c-1nc1cc3c(cc1c2-c1ccc([Si](C)(C)C)cc1)OCO3 | 56.3 | 74 | > 1000 | 863 | 321 | – |
| CC[C@@]1(O)C(=O)OCc2c1cc1n(c2=O)Cc2cc3c(-c4ccc(C(F)(F)F)cc4)c4c(cc3nc2-1)OCO4 | 934 | > 1000 | > 1000 | – | 803 | Dose-Dependent Effect |
| CC[C@@]1(O)C(=O)OCc2c1cc1n(c2=O)Cc2c-1nc1cc3c(cc1c2-c1ccc2c(c1)OCO2)OCO3 | 36.7 | 61.1 | 475 | 35.5 | 84.6 | – |
| CCCOc1ccc(-c2c3c(nc4cc5c(cc24)OCO5)-c2cc4c(c(=O)n2C3)COC(=O)[C@]4(O)CC)cc1 | 562 | 993 | > 1000 | 53 | 225 | – |
| CCCCc1ccc(-c2c3c(cc4nc5c(cc24)Cn2c-5cc4c(c2=O)COC(=O)[C@]4(O)CC)OCO3)cc1 | 759 | > 1000 | > 1000 | > 1000 | 541 | – |
| CC[C@@]1(O)C(=O)OCc2c1cc1n(c2=O)Cc2c-1nc1cc3c(cc1c2-c1ccc(C(C)C)cc1)OCO3 | 400 | 825 | 61.4 | 122 | 52 | – |
| CC[C@@]1(O)C(=O)OCc2c1cc1n(c2=O)Cc2c-1nc1cc3c(cc1c2-c1ccc(OC(C)C)cc1)OCO3 | < 6.4 | 160 | 506 | 52.8 | 142 | – |
| CC[C@@]1(O)C(=O)OCc2c1cc1n(c2=O)Cc2cc3c(-c4cccc(OC(C)C)c4)c4c(cc3nc2-1)OCO4 | 183 | 161 | 161 | 149 | 149 | – |
| CCCCOc1ccc(-c2c3c(nc4cc5c(cc24)OCO5)-c2cc4c(c(=O)n2C3)COC(=O)[C@]4(O)CC)cc1 | 235 | > 1000 | > 1000 | > 1000 | > 1000 | – |
| CCSc1ccc(-c2c3c(cc4nc5c(cc24)Cn2c-5cc4c(c2=O)COC(=O)[C@]4(O)CC)OCO3)cc1 | 620 | 401 | > 1000 | > 1000 | 211 | – |
| CC[C@@]1(O)C(=O)OCc2c1cc1n(c2=O)Cc2c-1nc1cc3c(cc1c2-c1cccc(OC(C)C)c1)OCO3 | 793 | 1000 | 143 | 64.1 | 400 | – |
| CC[C@@]1(O)C(=O)OCc2c1cc1n(c2=O)Cc2c-1nc1cc3c(cc1c2-c1ccc(C)c(C)c1)OCO3 | 22.3 | 64 | 364 | 45.3 | 22.1 | – |
| CCOc1cccc(-c2c3c(cc4nc5c(cc24)Cn2c-5cc4c(c2=O)COC(=O)[C@]4(O)CC)OCO3)c1 | 256 | 199 | > 1000 | 156 | 111 | – |
| CC[C@@]1(O)C(=O)OCc2c1cc1n(c2=O)Cc2c-1nc1cc3c(cc1c2-c1ccc(SC)cc1)OCO3 | 61.8 | 51.9 | 58.7 | 53.4 | 27.3 | – |
| CC[C@@]1(O)C(=O)OCc2c1cc1n(c2=O)Cc2cc3c(-c4ccc(C)c(C)c4)c4c(cc3nc2-1)OCO4 | 774 | > 1000 | > 1000 | > 1000 | 259 | – |
| CC[C@@]1(O)C(=O)OCc2c1cc1n(c2=O)Cc2cc3c(-c4cc(OC)c(OC)c(OC)c4)c4c(cc3nc2-1)OCO4 | 136 | 952 | 140 | 757 | 1000 | – |
| CCCOc1ccc(-c2c3c(cc4nc5c(cc24)Cn2c-5cc4c(c2=O)COC(=O)[C@]4(O)CC)OCO3)cc1 | 564 | > 1000 | 532 | > 1000 | 1000 | – |
| CC[C@@]1(O)C(=O)OCc2c1cc1n(c2=O)Cc2cc3c(-c4cccc(OC)c4)c4c(cc3nc2-1)OCO4 | > 1000 | > 1000 | > 1000 | > 1000 | 990 | – |
| CCCCOc1ccc(-c2c3c(cc4nc5c(cc24)Cn2c-5cc4c(c2=O)COC(=O)[C@]4(O)CC)OCO3)cc1 | 782 | 569 | 593 | 344 | 616 | – |
| CC[C@@]1(O)C(=O)OCc2c1cc1n(c2=O)Cc2c-1nc1cc3c(cc1c2-c1ccc(C(C)(C)C)cc1)OCO3 | 83.2 | 140 | > 1000 | 160 | 64 | – |
